These results are taken from US20130129720A1, “Combination Cancer Therapies with Wortmannin Analogs” (ONCOTHYREON INC., priority 2010, published 2013).

The nature of series [1]: clinical. As to conditions: human, in vivo.
In series [2] the target is PIK3CA (Homo sapiens, UniProt P42336). The series can be described thus: in vitro kinase assay, PIK3CA. It counts as biochemical. The source says: (§1) Table 1 illustrates the potency of 17-hydroxy PX-866 metabolite in in vitro kinase assays: […]
A short description of series [3]: Phase I trial: clinical pharmacokinetics.
In series [4] the target is PIK3CG (Homo sapiens, UniProt P48736). The series can be described thus: in vitro kinase assay, PIK3CG. It counts as biochemical.
Chain of PIK3CG (P48736 whole entry): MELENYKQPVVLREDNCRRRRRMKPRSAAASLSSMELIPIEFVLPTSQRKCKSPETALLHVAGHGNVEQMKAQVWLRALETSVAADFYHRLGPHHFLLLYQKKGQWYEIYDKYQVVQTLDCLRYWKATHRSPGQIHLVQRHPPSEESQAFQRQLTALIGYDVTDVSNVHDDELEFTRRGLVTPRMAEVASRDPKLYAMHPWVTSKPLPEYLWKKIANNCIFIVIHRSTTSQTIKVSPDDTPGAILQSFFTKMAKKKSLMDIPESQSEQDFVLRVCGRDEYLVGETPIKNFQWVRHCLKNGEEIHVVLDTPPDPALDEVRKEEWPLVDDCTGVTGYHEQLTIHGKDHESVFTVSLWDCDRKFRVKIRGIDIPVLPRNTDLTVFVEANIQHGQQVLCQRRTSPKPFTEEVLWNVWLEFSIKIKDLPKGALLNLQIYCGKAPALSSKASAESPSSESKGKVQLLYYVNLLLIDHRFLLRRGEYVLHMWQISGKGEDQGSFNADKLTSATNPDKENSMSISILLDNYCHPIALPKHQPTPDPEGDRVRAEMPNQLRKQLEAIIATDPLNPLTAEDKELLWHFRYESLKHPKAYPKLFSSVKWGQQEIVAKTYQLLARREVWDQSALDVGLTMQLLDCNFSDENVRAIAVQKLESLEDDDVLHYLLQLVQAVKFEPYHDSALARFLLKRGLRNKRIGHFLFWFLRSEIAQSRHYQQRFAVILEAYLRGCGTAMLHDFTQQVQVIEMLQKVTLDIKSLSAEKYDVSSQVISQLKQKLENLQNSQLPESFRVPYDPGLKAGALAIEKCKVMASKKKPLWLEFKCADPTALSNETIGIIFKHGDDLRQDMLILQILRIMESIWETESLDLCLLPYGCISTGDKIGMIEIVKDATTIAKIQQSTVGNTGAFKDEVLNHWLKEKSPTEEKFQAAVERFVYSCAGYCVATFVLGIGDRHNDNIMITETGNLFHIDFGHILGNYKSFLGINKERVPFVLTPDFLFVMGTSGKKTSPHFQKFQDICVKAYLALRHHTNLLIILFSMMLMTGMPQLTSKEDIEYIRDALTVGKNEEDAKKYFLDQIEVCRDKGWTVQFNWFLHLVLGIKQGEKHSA
From the text: as §1

The target of series [5] is PIK3CD (Homo sapiens, UniProt O00329). The series can be described thus: in vitro kinase assay, PIK3CD. It counts as biochemical.
From the text: as §1

In series [6] the target is p110β (Homo sapiens, UniProt P42338). The series is described as follows: cell based assays, p110β. As to conditions: in cell based assays. From the text:
(§2) PX-866 is an pan-isoform inhibitor of Class I P1-3K that covalently binds to ATP binding site of the p110 catalytic subunit. Described herein are studies that illustrate rapid metabolism of PX-866 to a 17-hydroxy PX-866 derivative.

Series [7] concerns the target p110α (Homo sapiens, UniProt P42336). The series is described as follows: cell based assays, p110α. As to conditions: for IC50: in cell based assays.
From the text: as §2

Series [8] deals with PIK3CB (Homo sapiens, UniProt P42338). The series is described as follows: in vitro kinase assay, PIK3CB. It counts as biochemical.
Chain of PIK3CB (P42338 whole entry): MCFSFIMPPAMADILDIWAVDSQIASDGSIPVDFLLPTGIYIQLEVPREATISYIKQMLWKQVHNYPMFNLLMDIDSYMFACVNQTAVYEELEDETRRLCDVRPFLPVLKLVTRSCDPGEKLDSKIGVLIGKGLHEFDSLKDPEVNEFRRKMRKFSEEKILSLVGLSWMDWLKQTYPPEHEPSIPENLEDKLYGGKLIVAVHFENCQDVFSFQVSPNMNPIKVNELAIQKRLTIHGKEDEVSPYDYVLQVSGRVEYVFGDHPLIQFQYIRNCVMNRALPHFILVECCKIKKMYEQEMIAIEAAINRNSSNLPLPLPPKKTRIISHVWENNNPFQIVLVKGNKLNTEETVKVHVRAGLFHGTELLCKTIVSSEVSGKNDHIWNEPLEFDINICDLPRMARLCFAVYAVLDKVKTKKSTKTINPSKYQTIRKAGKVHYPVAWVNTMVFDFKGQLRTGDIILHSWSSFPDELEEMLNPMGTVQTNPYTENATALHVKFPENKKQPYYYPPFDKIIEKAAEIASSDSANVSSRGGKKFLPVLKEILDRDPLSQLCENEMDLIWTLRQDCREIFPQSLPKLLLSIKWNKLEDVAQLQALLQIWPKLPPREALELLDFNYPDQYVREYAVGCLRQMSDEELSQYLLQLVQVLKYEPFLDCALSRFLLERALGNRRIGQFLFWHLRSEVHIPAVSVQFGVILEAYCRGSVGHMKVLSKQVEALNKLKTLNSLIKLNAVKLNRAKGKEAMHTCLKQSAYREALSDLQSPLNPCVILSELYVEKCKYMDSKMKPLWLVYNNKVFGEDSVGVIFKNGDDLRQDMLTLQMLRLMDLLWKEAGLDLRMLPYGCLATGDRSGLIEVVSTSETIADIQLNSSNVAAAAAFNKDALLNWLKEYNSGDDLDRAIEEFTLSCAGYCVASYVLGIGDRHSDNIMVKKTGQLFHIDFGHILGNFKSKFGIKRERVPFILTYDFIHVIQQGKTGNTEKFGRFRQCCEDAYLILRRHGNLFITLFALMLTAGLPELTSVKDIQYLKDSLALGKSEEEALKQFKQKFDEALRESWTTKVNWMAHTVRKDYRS
Chain of PIK3CB (P27986 whole entry partner): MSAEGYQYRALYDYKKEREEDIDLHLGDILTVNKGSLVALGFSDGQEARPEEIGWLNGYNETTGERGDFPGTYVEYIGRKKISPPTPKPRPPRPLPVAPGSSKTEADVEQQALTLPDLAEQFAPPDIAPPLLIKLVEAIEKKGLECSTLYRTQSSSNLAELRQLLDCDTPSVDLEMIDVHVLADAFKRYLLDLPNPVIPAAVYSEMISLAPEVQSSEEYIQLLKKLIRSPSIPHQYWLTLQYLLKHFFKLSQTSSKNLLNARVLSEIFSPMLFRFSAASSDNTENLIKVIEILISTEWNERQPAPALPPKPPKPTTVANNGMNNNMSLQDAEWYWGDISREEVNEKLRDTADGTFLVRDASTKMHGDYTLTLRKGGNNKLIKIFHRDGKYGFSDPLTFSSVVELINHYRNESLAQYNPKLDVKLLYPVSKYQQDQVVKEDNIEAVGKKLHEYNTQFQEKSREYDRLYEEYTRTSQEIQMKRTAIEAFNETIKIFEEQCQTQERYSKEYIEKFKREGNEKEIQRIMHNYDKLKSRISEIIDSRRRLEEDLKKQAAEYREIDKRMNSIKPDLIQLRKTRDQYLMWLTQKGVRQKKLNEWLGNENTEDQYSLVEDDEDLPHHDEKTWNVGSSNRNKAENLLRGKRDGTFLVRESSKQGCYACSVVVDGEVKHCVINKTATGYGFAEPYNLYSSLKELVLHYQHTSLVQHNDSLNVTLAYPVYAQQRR
From the text: as §1

Series [9] has as its system PI-3K pathway (p-mTOR and p-S6). The series can be described thus: Phase I trial: pharmacodynamics in PBMCs stimulated ex vivo, FACS based assay. Also on record: species or system human. As to conditions: PBMCs of treated patients. As to the method:
The pharmacodynamic effects of PX-866 in patients treated in the phase I single agent study were assessed using isolated peripheral blood mononuclear cells (PBMCs) stimulated ex vivo via FACS based assay. […] The study provided Evidence for pathway inhibition lasting up to 3 days post-treatment.

Series [10] concerns A549 lung tumor xenografts. As to conditions: 2 mg/kg PX-866 daily treatment groups. As to the method: H460 and A549 lung tumor xenografts were implanted subcutaneously in nude mice according to previously described procedures. PX-866 was tested on both a daily (2 mg/kg) and every-other-day dosing (3 mg/kg) schedule alone, and in combination with a 10 mg/kg dose of docetaxel. The dosing schedule of PX-866 relative to docetaxel was varied to test the effect of docetaxel treatment prior to or subsequent to PX-866 treatment. A table of the following dosing regimens is as follows with animals in Group 1 receiving a daily vehicle: […]

Series [11] relates to p-AKT/T-AKT. The series can be described thus: Phase I trial: p-AKT/T-AKT pharmacodynamics. It counts as in vivo, human. The note with it: 3 of 4 patients at 8 mg, 4 hours after a single oral dose.
For series [12], the system named is advanced solid tumors. The series can be described thus: Phase I trial of oral PX-866: response per RECIST. It counts as in vivo, human. As to the method:
Patient response was evaluated according to Response Evaluation Criteria in Solid Tumors (RECIST). Briefly, all measurable lesions up to a maximum of five lesions, representative of all involved organs were identified as target lesions and recorded and measured at baseline. Target lesions were selected on the basis of their size (lesions with the longest diameter) and their suitability for accurate repeated measurements (either by imaging techniques or clinically). A sum of the longest diameter (LD) for all target lesions was calculated and reported as the baseline sum LD. The baseline sum LD was used as reference by which to characterize the objective tumor. All other lesions (or sites of disease) were identified as non-target lesions and were also be recorded at baseline. Measurements of these lesions were not required, but the presence or absence of each was noted throughout follow-up.
A Complete Response (CR) indicated a disappearance of all target lesions.

Series [13] in a line: Phase I trial of oral PX-866: safety, DLT and MTD. It counts as in vivo, human. The method, then: This was an Open-label dose escalation study with expansion cohort at Maximal Tolerated Dose (MTD), 3+3 design and to test efficacy of 2 dosing schedules (intermittent and continuous). PX-866 was administered as an oral dose.
The primary and secondary objectives were tested using two different dosing regimens: 10 days of drug administration and daily administration for 28 days.
Intermittent schedule: 10 dose levels tested (0.5-16 mg). The starting dose level was 0.5 mg. Doses increased as follows: 100% escalation up to 2 mg, 50% escalation up to 4.5 mg, and approximately 30% escalation until the MTD is identified. The highest dose level at which no more than ⅙ patients experiences DLT was declared the MTD. The resulting dose levels were: 0.5, 1, 2, 3, 4.5, 6, 8, 10, 12 and 16 mg.
FIG. 1 illustrates the dosing schedule for intermittent dosing where PX-866 was given to patients on days 1-5 and 8-12 of a 28-day cycle.
Continuous dosing schedule: The starting dose was two dose levels below the MTD of intermittent dosing (8 mg) and subsequent dose levels was one or two dose levels (10 mg or 8 mg) below the MTD of intermittent dosing dependent on recommendation of the dose cohort review committee. FIG. 1 illustrates the dosing schedule for continuous dosing.

For series [14] the following is noted: aqueous solutions at 37° C. or 0° C. at neutral pH; cited from earlier work.
The conditions of series [15]: in vivo; cited from earlier work.
In series [16] the test system is CUHN015 tumors. The series can be described thus: direct patient tumor model of SCCHN, CUHN015. It counts as in vivo, nude mice. As to conditions: PX-866 2 mg/kg 5 out of 7 days; docetaxel 20 mg/kg IP weekly. The method, then:
Briefly, these models employed direct implantation of patients' tumors into nude mice according to Keysar et al., J Clin Oncol 28:15s, 2010 (suppl. abstruct 5558).
Animals were treated with PX-866 alone, and in combination with 20 mg/kg docetaxel dosed intraperitoneally (IP) on a weekly schedule. Saline treated animals and 20 mg/kg docetaxel dosed animals served as controls for the study.

Chain of p110α (P42336 whole entry): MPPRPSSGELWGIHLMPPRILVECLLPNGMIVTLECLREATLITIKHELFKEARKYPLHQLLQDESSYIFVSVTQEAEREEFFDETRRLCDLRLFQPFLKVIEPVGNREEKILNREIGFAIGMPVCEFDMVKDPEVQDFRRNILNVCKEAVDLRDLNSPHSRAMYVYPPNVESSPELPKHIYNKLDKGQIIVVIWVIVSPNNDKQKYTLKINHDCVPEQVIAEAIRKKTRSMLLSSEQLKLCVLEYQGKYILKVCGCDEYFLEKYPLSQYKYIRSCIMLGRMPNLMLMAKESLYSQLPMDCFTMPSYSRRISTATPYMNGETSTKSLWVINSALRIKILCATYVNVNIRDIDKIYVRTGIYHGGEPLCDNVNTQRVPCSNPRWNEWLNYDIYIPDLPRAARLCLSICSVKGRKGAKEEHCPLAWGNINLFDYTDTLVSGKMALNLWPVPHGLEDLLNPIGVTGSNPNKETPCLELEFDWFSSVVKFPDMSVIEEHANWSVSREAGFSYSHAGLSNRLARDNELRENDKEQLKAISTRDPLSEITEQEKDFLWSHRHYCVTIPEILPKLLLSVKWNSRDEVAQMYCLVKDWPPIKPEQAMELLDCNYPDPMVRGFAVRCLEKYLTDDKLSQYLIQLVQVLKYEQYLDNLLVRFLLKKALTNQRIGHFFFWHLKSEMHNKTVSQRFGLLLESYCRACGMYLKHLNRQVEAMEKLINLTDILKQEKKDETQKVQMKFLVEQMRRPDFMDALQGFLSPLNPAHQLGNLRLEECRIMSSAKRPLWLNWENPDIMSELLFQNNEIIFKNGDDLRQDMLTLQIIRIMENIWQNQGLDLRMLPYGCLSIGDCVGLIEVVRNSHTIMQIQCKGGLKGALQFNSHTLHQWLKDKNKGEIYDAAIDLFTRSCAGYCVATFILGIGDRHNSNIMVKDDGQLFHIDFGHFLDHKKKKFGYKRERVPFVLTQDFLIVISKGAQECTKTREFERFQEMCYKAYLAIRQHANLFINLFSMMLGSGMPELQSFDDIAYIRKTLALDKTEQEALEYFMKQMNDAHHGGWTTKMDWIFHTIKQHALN
Chain of p110α (P27986 whole entry partner): as the sequence (P27986 whole entry partner) above
Chain of PIK3CA (P42336 whole entry): as the sequence (P42336 whole entry) above
Chain of PIK3CA (P27986 whole entry partner): as the sequence (P27986 whole entry partner) above
Chain of p110β (P42338 whole entry, canonical isoform): as the sequence (P42338 whole entry) above
Chain of p110β (P27986 whole entry partner, canonical isoform): as the sequence (P27986 whole entry partner) above

Compound `C=CCN(C=C1C(=O)OC(COC)C2(C)C1=C(O)C(=O)C1=C2C(OC(C)=O)CC2(C)C(O)CCC12)CC=C` (centres unmarked) [17-OH PX-866] gave an AUC(0-t) in [1] (8 mg) of 4.22 ng·h/mL. Moreover, in series [1] (8 mg), the Cmax amounted to 1.14 ng/mL. Besides, the half-life in [1] (8 mg) was 3.62 h. In addition, in series [1] (po), the Tmax was 0.67 to 1.07 h. The concentration for half-maximal inhibition (IC50) in series [2] was determined as 14 nM; in series [4], 148 nM; in series [5], 131 nM; in [6] it was 57 nM; in series [7] it was 14 nM; in [8] it was 57 nM. In addition, the drug accumulation entry in series [3] (12 mg cohort, intermittent dosing) is “no evidence of drug accumulation”. Besides, the “AUC in humans compared with mice” value in [3] (due to increased mean residence time in humans) is reported as “exceeded AUC in mice”. In [3] (mice treated at an efficacious dose of PX-866 (2 mg/kg)), the “Cmax in humans compared with mice” value was “equal to or exceed peak levels observed in mice”. Further, the increase in potency in series [7] (cell proliferation assays versus p110α and p110β isoforms, relative to PX-866) is on record as 2-5 fold.

On to `C=CCN(/C=C1/C(=O)O[C@H](COC)[C@@]2(C)C1=C(O)C(=O)C1=C2[C@H](OC(C)=O)C[C@]2(C)C(=O)CC[C@@H]12)CC=C` [PX-866, Acetic acid 4-diallylaminomethylene-6-hydroxy-1-α-methoxymethyl-10β,13β-dimethyl-3,7,17-trioxo-1,3,4,7,10,11β,12,13,14α,15,16,17-dodecahydro-2-oxa-cyclopenta[α]phenanthren-11-yl ester], for which the IC50 in [2] is 39 nM; in series [4] it was 198 nM; in series [5], 124 nM; in series [6], 88 nM; in series [7], 39 nM; in series [8], 88 nM. In [9], the “duration of pathway inhibition post-treatment” value is “up to 3 days”. For the same compound, the “conversion of parent to 17-OH metabolite” value in [3] (oral, patients) is given as “rapid conversion”. For the same compound, in series [3] (oral, patients, with rare exceptions), the “plasma level of parent” value was “below the limits of detection”. In series [10], the mortality entry is given as “Increased mortality”. Further, the “decrease in p-AKT/T-AKT” value in series [11] was at least 60%. Moreover, the “Disease stabilization, patients” value in series [12] (continuous dosing) was 71%; in series [12] (intermittent dosing), 16%. Moreover, the ALT/AST elevation entry in series [13] (continuous dosing) is recorded as “ALT/AST elevation was observed”. Besides, the “Most common adverse events (AEs)” value in series [13] (continuous dosing) was “diarrhea, nausea, vomiting, headache and fatigue”; in [13] (intermittent dosing), “diarrhea, nausea, vomiting, and constipation”. Moreover, the “DLT, patients” value in [13] (continuous dosing, 10 mg per day) is recorded as 2/3. For the same compound, the “toxicity in patients receiving >2 cycles” value in [13] (intermittent dosing schedule) is on record as “No significant increase in toxicity”. Further, the “Dose limiting toxicity (DLT), patients” value in series [13] (intermittent dosing, 16 mg per day) is on record as 2/5. In series [13] (oral, daily for 28 days), the “Maximal Tolerated Dose (MTD) for continuous dosing” value is 8 mg per day. Further, in series [13] (oral, days 1-5 and 8-12 of a 28-day cycle), the “Maximal Tolerated Dose (MTD) for intermittent dosing” value was 12 mg per day.

With `COC[C@H]1OC(=O)c2coc3c2[C@@]1(C)C1=C(C3=O)[C@@H]2CCC(=O)[C@@]2(C)C[C@H]1OC(C)=O` [Wortmannin], the stability result in series [14] was “subject to decomposition by hydrolytic opening of the furan ring”. The toxicity entry in [15] is “liver and hematologic toxicity”.

Consider `CC(=O)O[C@@]12CO[C@@H]1C[C@H](O)[C@@]1(C)C(=O)[C@H](O)C3=C(C)[C@@H](OC(=O)[C@H](O)[C@@H](NC(=O)OC(C)(C)C)c4ccccc4)C[C@@](O)([C@@H](OC(=O)c4ccccc4)[C@H]21)C3(C)C` [docetaxel, (2R,3S)—N-carboxy-3-phenylisoserine,N-tert-butyl ester, 13-ester with 5β-20-epoxy-1,2α,4,7β,10β,13α-hexahydroxytax-11-en-9-one 4-acetate 2-benzoate, trihydrate], for which the tumor growth entry in series [16] is given as “no effect on tumor growth”.
